Measured values: BindingDB's records for doi:10.1021/jm100394y (Amgen, 2010)
pEC50: −log10 of the molar value.

Assay: Inhibition of aurora B in human HeLa cells assessed as increase of >= 4N DNA level after 24 hrs by Hoechst staining

`CNc1nccc(-c2cccnc2Oc2ccc(NC(=O)c3ccccc3Nc3ccc(F)cc3)cc2)n1` [2-(4-Fluorophenylamino)-N-(4-(3-(2-(methylamino)pyrimidin-4-yl)pyridin-2-yloxy)phenyl)benzamide] and `CNc1nccc(-c2cccnc2Oc2ccc(NC(=O)c3cc(F)ccc3Nc3ccccc3)cc2)n1` [5-Fluoro-N-(4-(3-(2-(methylamino)pyrimidin-4-yl)pyridin-2-yloxy)phenyl)-2-(phenylamino)benzamide] are within 0.2 log units of each other in pEC50: 7.55 for the first, 7.70 for the second.

`CNc1nccc(-c2cccnc2Oc2ccc(NC(=O)c3cccc(Cl)c3)cc2C)n1` [3-Chloro-N-(3-methyl-4-(3-(2-(methylamino)pyrimidin-4-yl)-pyridin-2-yloxy)phenyl)benzamide] and `CNc1nccc(-c2cccnc2Oc2ccc(NC(=O)c3ccc(Cl)cc3)cc2C)n1` [4-Chloro-N-(3-methyl-4-(3-(2-(methylamino)pyrimidin-4-yl)-pyridin-2-yloxy)phenyl)benzamide] cannot be ordered by pEC50: under 5.92 for the first, under 5.92 for the second.

First: CNc1nccc(-c2cccnc2Oc2ccc(Nc3nnc(-c4ccc(F)cc4)c4ccccc34)cc2)n1 [4-(4-Fluorophenyl)-N-(4-(3-(2-(methylamino)pyrimidin-4-yl)-pyridin-2-yloxy)phenyl)phthalazin-1-amine]
Second: CNc1nccc(-c2cccnc2Oc2ccc(Nc3nnc(-c4ccccc4)c4ccccc34)cc2)n1 [N-(4-(3-(2-(Methylamino)pyrimidin-4-yl)pyridin-2-yloxy)phenyl)-4-phenylphthalazin-1-amine]
The pEC50 of the first is 0.20 log units lower: 7.62 for the first, 7.82 for the second.

First: CNc1nccc(-c2cccnc2Oc2ccc(NC(=O)c3ccccc3Nc3ccccc3)c(C)c2)n1 [N-(2-Methyl-4-(3-(2-(methylamino)pyrimidin-4-yl)pyridin-2-yloxy)phenyl)-2-(phenylamino)benzamide]
Second: CNc1nccc(-c2cccnc2Oc2ccc(NC(=O)c3ccccc3Nc3ccccc3)cc2C)n1 [N-(3-Methyl-4-(3-(2-(methylamino)pyrimidin-4-yl)pyridin-2-yloxy)phenyl)-2-(phenylamino)benzamide]
The pEC50 of the first is 1.21 log units lower: 5.84 for the first, 7.05 for the second. The second is the more potent here.

`CNc1nccc(-c2cccnc2Oc2ccc(NC(=O)c3ccccc3Oc3ccccc3)cc2C)n1` [N-(3-Methyl-4-(3-(2-(methylamino)pyrimidin-4-yl)pyridin-2-yloxy)phenyl)-2-phenoxybenzamide] and `CNc1nccc(-c2cccnc2Oc2ccc(NC(=O)c3cccc(Oc4ccccc4)c3)cc2C)n1` [N-(3-Methyl-4-(3-(2-(methylamino)pyrimidin-4-yl)pyridin-2-yloxy)phenyl)-3-phenoxybenzamide] cannot be ordered by pEC50: under 5.92 for the first, under 5.92 for the second.

Going from `CNc1nccc(-c2cccnc2Oc2ccc(NC(=O)c3cccc(C(F)(F)F)c3)cc2C)n1` [N-(3-Methyl-4-(3-(2-(methylamino)pyrimidin-4-yl)pyridin-2-yloxy)phenyl)-3-(trifluoromethyl)benzamide] to `CNc1nccc(-c2cccnc2Oc2ccc(NC(=O)c3ccccc3Nc3ccccc3)cc2)n1` [N-(4-(3-(2-(Methylamino)pyrimidin-4-yl)pyridin-2-yloxy)phenyl)-2-(phenylamino)benzamide], the pEC50 rises from under 5.92 to 7.82. The second is the more potent here.
